Laboratory results taken from US20050112573A1, “Method of detecting toxic substance” (priority 2001, published 2005).

Tested on: yeast genes (level of expressed mRNA)
Test: DNA chip analysis of expressed mRNA of yeast genes after 2 h culture with a toxic chemical substance
Type: cell-based, Saccharomyces cerevisiae S288C
Conditions: for The level of expressed mRNA in the presence of chemical substance/ (ratio to absence of chemical substance): stress protein genes, DNA chip; for The level of expressed mRNA in the presence of chemical substance/ in its absence, gene YDL078C: yeast gene YDL078C
Experimental: Yeast (Saccharomyces cerevtisiae S288C (α SUC2mal mel gap2 CUP1)) were cultured at 25° C. on YPD medium (yeast extract 1%, polypepton 2%, glucose 2%). One of toxic chemical substances was added to the cell at logarithmic growth phase, and the cell was further cultured for two hours. Cell was cultured without any chemical substance in the same condition, and was used as control. Concentrations of the chemical substances were defined to inhibit the growth of the yeast but not lead to death.
After the completion of cultivation, the culture was centrifuged to collect the cells. To the cells, sodium acetate buffer (50 mM sodium acetate, 10 mM EDTA, 1% SDS) was added, and the mixture was shaken at 65° C. for five minutes, followed by returning to room temperature, and obtaining the supernatant, which procedure was repeated two times. To the supernatant, ½ amount of a solution of phenol/chloroform was added, and the mixture was centrifuged to give a supernatant, which was added with an equal amount of chloroform, and the mixture was centrifuged to give a supernatant. To the supernatant, an equal amount of isopropanol containing 0.3 M sodium acetate was added, and the mixture was allowed to stand at room temperature for 30 minutes, after which the mixture was centrifuged to give a sediment of the whole RNAs. Seventy % ethanol was added to the sediment, and the mixture was again centrifuged to give a sediment, which was then dried and dissolved in water. mRNA was isolated from the whole RNAs as followings. In view of the fact that a poly A chain is attached to the 3′ terminus of mRNA, a polynucleotide having a poly T structure which was immobilized on the surface of latex beads was used to trap the mRNA, and then the mRNA was washed and eluted with spine column (Oligotex-dT30<Super>mRNA Purification Kit, Takara). Reverse transcription of the mRNA was conducted with a reverse transcriptase (Super Script II Reverse Transcriptase; catalogue No. 18064-014, GibcoBRL) using fluorescence-labeled nucleotides to give cDNAs that were introduced with Cy3-dUTP or Cy5-dUTP during the reverse transcription.
The labeled cDNAs were dissolved in TE buffer (10 mM Tris-HCl/1 mM EDTA, pH8.0), and the solution was dropped on the DNA chip containing the whole genes of yeast (DNA Chip Research Inc. Japan) so that the cDNAs were hybridized on the DNA chip at 65° C. for over 12 hours. The fluoresces intensity of the DNA chip was read with a scanner, and the ratio relative to the fluorescence intensity resulting from the absence of chemical substance was estimated as the following, which is shown in Tables 1 to 9: [formula]
In the Tables, “Intensity” indicated in the rightmost column is a value of the level of expressed mRNA of each gene in control cells as divided by the average level of the expressions of the whole genes.

COc1cc(CNC(=O)CCCCC=CC(C)C)ccc1O [(12), 8-methyl-N-vanillyl-6-nonenamide]
1.0: level of expressed mRNA in the presence of chemical substance/in its absence (gene YPL017C) | The level of expressed mRNA in the presence of chemical substance/absence: YPL150W (gene YPL150W) | The level of expressed mRNA in the presence of chemical substance/The level of expressed mRNA in the absence of chemical substance (yeast gene YAR010C) | The level of expressed mRNA in the presence of chemical substance/ (in its absence), gene YBR036C (yeast gene YBR036C, ratio of DNA chip fluorescence intensity to that without chemical substance) | The level of expressed mRNA in the presence of chemical substance/ in its absence, gene YDL067C (yeast gene YDL067C, energy system protein genes, 2 h culture with the chemical, ratio to control without chemical) | The level of expressed mRNA in the presence of chemical substance/ (ratio to absence), gene YDL067C (yeast gene YDL067C, mitochondria-located protein genes, 2 h culture with chemical)
1.4: The level of expressed mRNA in the presence of chemical substance/The level of expressed mRNA in the absence of chemical substance (yeast gene YDR055W)
1.5: The level of expressed mRNA in the presence of chemical substance/The level of expressed mRNA in the absence of chemical substance (yeast gene YCL020W)
0.6: The level of expressed mRNA in the presence of chemical substance/absence: YPL188W (gene YPL188W) | The level of expressed mRNA in the presence of chemical substance/absence: YPR150W (gene YPR150W) | The level of expressed mRNA in the presence of chemical substance/absence: YPR158W (gene YPR158W)
0.7: The level of expressed mRNA in the presence of chemical substance/absence: YPL005W (gene YPL005W) | The level of expressed mRNA in the presence of chemical substance / the level in the absence of chemical substance, yeast gene YPL107W (gene YPL107W, DNA chip fluorescence ratio to control without chemical, 2 hours culture with chemical, growth-inhibiting non-lethal concentration) | The level of expressed mRNA in the presence of chemical substance/absence: YPL168W (gene YPL168W) | The level of expressed mRNA in the presence of chemical substance/absence: YPL225W (gene YPL225W) | The level of expressed mRNA in the presence of chemical substance/ (ratio to absence), gene YBL038W (yeast gene YBL038W, mitochondria-located protein genes, 2 h culture with chemical) | The level of expressed mRNA in the presence of chemical substance/ (ratio to absence), gene YBR122C (yeast gene YBR122C, mitochondria-located protein genes, 2 h culture with chemical)
1.2: level of expressed mRNA in the presence of chemical substance/in its absence (gene YOR347C) | level of expressed mRNA in the presence of chemical substance/in its absence (gene YPR026W) | The level of expressed mRNA in the presence of chemical substance/absence: YPR148C (gene YPR148C) | The level of expressed mRNA in the presence of chemical substance/The level of expressed mRNA in the absence of chemical substance (yeast gene YBR214W) | The level of expressed mRNA in the presence of chemical substance/The level of expressed mRNA in the absence of chemical substance (yeast gene YDL008W)
1.1: level of expressed mRNA in the presence of chemical substance/in its absence (gene YPR006C) | The level of expressed mRNA in the presence of chemical substance/absence: YPR174C (gene YPR174C) | The level of expressed mRNA in the presence of chemical substance/ (ratio to absence of chemical substance) (yeast gene YBL093C) | The level of expressed mRNA in the presence of chemical substance/ (ratio to absence), gene YBR251W (yeast gene YBR251W, mitochondria-located protein genes, 2 h culture with chemical) | The level of expressed mRNA in the presence of chemical substance/ (in its absence), gene YBR298C (yeast gene YBR298C, ratio of DNA chip fluorescence intensity to that without chemical substance) | The level of expressed mRNA in the presence of chemical substance/ (ratio to absence), gene YCR046C (yeast gene YCR046C, mitochondria-located protein genes, 2 h culture with chemical) | The level of expressed mRNA in the presence of chemical substance/The level of expressed mRNA in the absence of chemical substance (yeast gene YCR071C) | The level of expressed mRNA in the presence of chemical substance/ (ratio to absence), gene YCR083W (yeast gene YCR083W, mitochondria-located protein genes, 2 h culture with chemical) | The level of expressed mRNA in the presence of chemical substance/ (ratio to absence of chemical substance) (yeast gene YCR083W)
0.8: The level of expressed mRNA in the presence of chemical substance/absence: YPL151C (gene YPL151C) | The level of expressed mRNA in the presence of chemical substance/absence: YPL180W (gene YPL180W) | The level of expressed mRNA in the presence of chemical substance/absence: YPL221W (gene YPL221W) | The level of expressed mRNA in the presence of chemical substance/absence: YPL260W (gene YPL260W) | The level of expressed mRNA in the presence of chemical substance/absence: YPR061C (gene YPR061C) | The level of expressed mRNA in the presence of chemical substance/absence: YPR146C (gene YPR146C) | The level of expressed mRNA in the presence of chemical substance/absence: YPR172W (gene YPR172W) | The level of expressed mRNA in the presence of chemical substance/ (ratio to absence of chemical substance) (yeast gene YBR044C) | The level of expressed mRNA in the presence of chemical substance/The level of expressed mRNA in the absence of chemical substance (yeast gene YCL027W) | The level of expressed mRNA in the presence of chemical substance/The level of expressed mRNA in the absence of chemical substance (yeast gene YCR004C) | The level of expressed mRNA in the presence of chemical substance/ in its absence, gene YDL078C (energy system protein genes, 2 h culture with the chemical, ratio to control without chemical) | The level of expressed mRNA in the presence of chemical substance/ in its absence, gene YDL078C (ratio of DNA chip fluorescence intensity to that without chemical substance) | The level of expressed mRNA in the presence of chemical substance/ (in its absence), gene YDL215C (yeast gene YDL215C, ratio of DNA chip fluorescence intensity to that without chemical substance)
1.3: level of expressed mRNA in the presence of chemical substance/in its absence (gene YOR344C) | The level of expressed mRNA in the presence of chemical substance/The level of expressed mRNA in the absence of chemical substance (yeast gene YCR088W)
1.6: The level of expressed mRNA in the presence of chemical substance/The level of expressed mRNA in the absence of chemical substance (yeast gene YBL005W-A) | The level of expressed mRNA in the presence of chemical substance/The level of expressed mRNA in the absence of chemical substance (yeast gene YBL041W)
0.5: The level of expressed mRNA in the presence of chemical substance/absence: YPR169W (gene YPR169W)
3.1: The level of expressed mRNA in the presence of chemical substance/The level of expressed mRNA in the absence of chemical substance (yeast gene YBL078C)
0.9: The level of expressed mRNA in the presence of chemical substance / the level in the absence of chemical substance, yeast gene YPL138C (gene YPL138C, DNA chip fluorescence ratio to control without chemical, 2 hours culture with chemical, growth-inhibiting non-lethal concentration) | The level of expressed mRNA in the presence of chemical substance/absence: YPL152W (gene YPL152W) | The level of expressed mRNA in the presence of chemical substance/absence: YPL249C (gene YPL249C) | level of expressed mRNA in the presence of chemical substance/in its absence (gene YPL265W) | The level of expressed mRNA in the presence of chemical substance/absence: YPR049C (gene YPR049C) | The level of expressed mRNA in the presence of chemical substance/absence: YPR093C (gene YPR093C) | The level of expressed mRNA in the presence of chemical substance/The level of expressed mRNA in the absence of chemical substance (yeast gene YBL043W) | The level of expressed mRNA in the presence of chemical substance/The level of expressed mRNA in the absence of chemical substance (yeast gene YDL238C)
